Where two headings read alike, the source gives them in different places.
Tests used:
Experiment in all cases: Test C pre-/postemergence greenhouse herbicide test
Assay type in all cases: in vivo
[1] = system: pigweed (Amaranthus retroflexus); conditions: Amaranthus retroflexus, Pigweed, read-out: Plant response rating; for pest or weed control at 31 g/ha: 31 g ai/ha; for pest or weed control at 62 g/ha: 62 g ai/ha; for pest or weed control at 125 g/ha: 125 g ai/ha; for pest or weed control at 250 g/ha: 250 g ai/ha
Outline: (§1)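 Seeds in loam–sand blend sprayed preemergence, and 1- to 4-leaf plants (2–18 cm) sprayed postemergence, with compounds in non-phytotoxic solvent plus surfactant. Visual rating versus controls after 13–15 d in greenhouse, 0 (no effect) to 100 (complete control).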

soybean (Glycine max) = conditions: Glycine max, Soybean, read-out: Plant response rating; for plant injury at 62 g/ha: 62 g ai/ha; for plant injury at 125 g/ha: 125 g ai/ha; for plant injury at 250 g/ha: 250 g ai/ha
Outline: as §1

[2] = system: crabgrass, Large (large crabgrass, Digitaria sanguinalis); conditions: Digitaria sanguinalis, Crabgrass, Large, read-out: Plant response rating; for pest or weed control at 31 g/ha: 31 g ai/ha; for pest or weed control at 62 g/ha: 62 g ai/ha; for pest or weed control at 125 g/ha: 125 g ai/ha; for pest or weed control at 250 g/ha: 250 g ai/ha
Outline: as §1

[3] = system: blackgrass (Alopecurus myosuroides); conditions: Alopecurus myosuroides, Blackgrass, read-out: Plant response rating; for pest or weed control at 31 g/ha: 31 g ai/ha; for pest or weed control at 62 g/ha: 62 g ai/ha; for pest or weed control at 125 g/ha: 125 g ai/ha; for pest or weed control at 250 g/ha: 250 g ai/ha
Outline: as §1

[4] = system: oat, wild (wild oat, Avena fatua); conditions: Postemergence
Outline: as §1

[5] = system: ragweed (common ragweed, Ambrosia elatior); conditions: Ambrosia artemisiifolia, Ragweed, read-out: Plant response rating; for pest or weed control at 31 g/ha: 31 g ai/ha; for pest or weed control at 62 g/ha: 62 g ai/ha; for pest or weed control at 125 g/ha: 125 g ai/ha; for pest or weed control at 250 g/ha: 250 g ai/ha
Outline: as §1

[6] = system: morningglory (Ipomoea coccinea); conditions: Morningglory
Outline: as §1

[7] = system: wheat (winter wheat, Triticum aestivum); conditions: Triticum aestivum, Wheat, read-out: Plant response rating; for plant injury at 62 g/ha: 62 g ai/ha; for plant injury at 125 g/ha: 125 g ai/ha; for plant injury at 250 g/ha: 250 g ai/ha
Outline: as §1

kochia (Kochia scoparia) = conditions: Postemergence
Outline: as §1

corn (Zea mays) = conditions: Zea mays, Corn, read-out: Plant response rating; for plant injury at 31 g/ha: 31 g ai/ha; for plant injury at 62 g/ha: 62 g ai/ha; for plant injury at 125 g/ha: 125 g ai/ha; for plant injury at 250 g/ha: 250 g ai/ha
Outline: as §1

[8] = system: lambsquarters (Chenopodium album)
Outline: as §1

[9] = system: waterhemp (common waterhemp, Amaranthus rudis); conditions: Waterhemp
Outline: as §1

[10] = system: ryegrass, Italian (Italian ryegrass, Lolium multiflorum); conditions: Lolium multiflorum, Ryegrass, Italian, read-out: Plant response rating; for pest or weed control at 31 g/ha: 31 g ai/ha; for pest or weed control at 62 g/ha: 62 g ai/ha; for pest or weed control at 125 g/ha: 125 g ai/ha; for pest or weed control at 250 g/ha: 250 g ai/ha
Outline: as §1

[11] = post-emergence, Postemergence, 31 g ai/ha

SMILES: Cc1cc(=O)n(-c2ccc(F)cc2)nc1Cc1ccnc(C(F)(F)F)c1 [Compound 1, 2-(4-fluorophenyl)-5-methyl-6-[[2-(trifluoromethyl)-4-pyridinyl]methyl]-3(2H)-pyridazinone]
- pest or weed control at 31 g/ha ([1]; post-emergence, Postemergence): 35%
- pest or weed control at 62 g/ha ([1]; post-emergence, Postemergence): 55%
- pest or weed control at 125 g/ha ([1]; post-emergence, Postemergence): 65%
- pest or weed control at 250 g/ha ([1]; post-emergence, Postemergence): 85%
- pest or weed control at 31 g/ha ([1]; pre-emergence, Preemergence): 100%
- pest or weed control at 62 g/ha ([1]; pre-emergence, Preemergence): 100%
- pest or weed control at 125 g/ha ([1]; pre-emergence, Preemergence): 100%
- pest or weed control at 250 g/ha ([1]; pre-emergence, Preemergence): 100%
- plant injury at 31 g/ha (soybean (Glycine max); [11]): 35%
- plant injury at 62 g/ha (soybean (Glycine max); post-emergence, Postemergence): 40%
- plant injury at 125 g/ha (soybean (Glycine max); post-emergence, Postemergence): 50%
- plant injury at 250 g/ha (soybean (Glycine max); post-emergence, Postemergence): 70%
- plant injury at 62 g/ha (soybean (Glycine max); pre-emergence, Preemergence): 60%
- plant injury at 125 g/ha (soybean (Glycine max); pre-emergence, Preemergence): 95%
- plant injury at 250 g/ha (soybean (Glycine max); pre-emergence, Preemergence): 98%
- pest or weed control at 31 g/ha ([2]; post-emergence, Postemergence): 5%
- pest or weed control at 62 g/ha ([2]; post-emergence, Postemergence): 5%
- pest or weed control at 125 g/ha ([2]; post-emergence, Postemergence): 10%
- pest or weed control at 250 g/ha ([2]; post-emergence, Postemergence): 20%
- pest or weed control at 31 g/ha ([2]; pre-emergence, Preemergence): 100%
- pest or weed control at 62 g/ha ([2]; pre-emergence, Preemergence): 100%
- pest or weed control at 125 g/ha ([2]; pre-emergence, Preemergence): 100%
- pest or weed control at 250 g/ha ([2]; pre-emergence, Preemergence): 100%
- pest or weed control at 31 g/ha ([3]; post-emergence, Postemergence): 5%
- pest or weed control at 62 g/ha ([3]; post-emergence, Postemergence): 5%
- pest or weed control at 125 g/ha ([3]; post-emergence, Postemergence): 5%
- pest or weed control at 250 g/ha ([3]; post-emergence, Postemergence): 5%
- pest or weed control at 31 g/ha ([3]; pre-emergence, Preemergence): 30%
- pest or weed control at 62 g/ha ([3]; pre-emergence, Preemergence): 30%
- pest or weed control at 125 g/ha ([3]; pre-emergence, Preemergence): 90%
- pest or weed control at 250 g/ha ([3]; pre-emergence, Preemergence): 90%
- Plant response rating ([4]; 31 g ai/ha): 5
- Plant response rating ([4]; 62 g ai/ha): 5
- Plant response rating ([4]; 125 g ai/ha): 5
- Plant response rating ([4]; 250 g ai/ha): 5
- pest or weed control at 31 g/ha ([5]; post-emergence, Postemergence): 30%
- pest or weed control at 62 g/ha ([5]; post-emergence, Postemergence): 50%
- pest or weed control at 125 g/ha ([5]; post-emergence, Postemergence): 50%
- pest or weed control at 250 g/ha ([5]; post-emergence, Postemergence): 60%
- pest or weed control at 31 g/ha ([5]; pre-emergence, Preemergence): 25%
- pest or weed control at 62 g/ha ([5]; pre-emergence, Preemergence): 35%
- pest or weed control at 125 g/ha ([5]; pre-emergence, Preemergence): 70%
- pest or weed control at 250 g/ha ([5]; pre-emergence, Preemergence): 100%
- Plant response rating ([6]; Postemergence, 31 g ai/ha): 60
- Plant response rating ([6]; Postemergence, 125 g ai/ha): 70
- Plant response rating ([6]; Postemergence, 250 g ai/ha): 70
- Plant response rating ([6]; Preemergence, 31 g ai/ha): 50
- Plant response rating ([6]; Preemergence, 62 g ai/ha): 90
- Plant response rating ([6]; Preemergence, 125 g ai/ha): 100
- Plant response rating ([6]; Preemergence, 250 g ai/ha): 100
- plant injury at 31 g/ha [7, 11]: 0%
- plant injury at 62 g/ha ([7]; post-emergence, Postemergence): 5%
- plant injury at 125 g/ha ([7]; post-emergence, Postemergence): 5%
- plant injury at 250 g/ha ([7]; post-emergence, Postemergence): 5%
- plant injury at 62 g/ha ([7]; pre-emergence, Preemergence): 5%
- plant injury at 125 g/ha ([7]; pre-emergence, Preemergence): 15%
- plant injury at 250 g/ha ([7]; pre-emergence, Preemergence): 70%
- Plant response rating (kochia (Kochia scoparia); 31 g ai/ha): 80
- Plant response rating (kochia (Kochia scoparia); 62 g ai/ha): 80
- Plant response rating (kochia (Kochia scoparia); 125 g ai/ha): 85
- Plant response rating (kochia (Kochia scoparia); 250 g ai/ha): 85
- plant injury at 31 g/ha (corn (Zea mays); post-emergence, Postemergence): 5%
- plant injury at 62 g/ha (corn (Zea mays); post-emergence, Postemergence): 5%
- plant injury at 125 g/ha (corn (Zea mays); post-emergence, Postemergence): 5%
- plant injury at 250 g/ha (corn (Zea mays); post-emergence, Postemergence): 10%
- plant injury at 31 g/ha (corn (Zea mays); pre-emergence, Preemergence): 15%
- plant injury at 62 g/ha (corn (Zea mays); pre-emergence, Preemergence): 50%
- plant injury at 125 g/ha (corn (Zea mays); pre-emergence, Preemergence): 90%
- plant injury at 250 g/ha (corn (Zea mays); pre-emergence, Preemergence): 95%
- Plant response rating ([8]; Postemergence, 31 g ai/ha): 60
- Plant response rating ([8]; Postemergence, 125 g ai/ha): 65
- Plant response rating ([8]; Postemergence, 250 g ai/ha): 75
- Plant response rating ([8]; Preemergence, 31 g ai/ha): 100
- Plant response rating ([8]; Preemergence, 62 g ai/ha): 100
- Plant response rating ([8]; Preemergence, 125 g ai/ha): 100
- Plant response rating ([8]; Preemergence, 250 g ai/ha): 100
- Plant response rating ([9]; Postemergence, 31 g ai/ha): 50
- Plant response rating ([9]; Postemergence, 62 g ai/ha): 50
- Plant response rating ([9]; Postemergence, 125 g ai/ha): 65
- Plant response rating ([9]; Postemergence, 250 g ai/ha): 65
- Plant response rating ([9]; Preemergence, 62 g ai/ha): 100
- Plant response rating ([9]; Preemergence, 125 g ai/ha): 100
- Plant response rating ([9]; Preemergence, 250 g ai/ha): 100
- pest or weed control at 31 g/ha ([10]; post-emergence, Postemergence): 5%
- pest or weed control at 62 g/ha ([10]; post-emergence, Postemergence): 5%
- pest or weed control at 125 g/ha ([10]; post-emergence, Postemergence): 5%
- pest or weed control at 250 g/ha ([10]; post-emergence, Postemergence): 5%
- pest or weed control at 31 g/ha ([10]; pre-emergence, Preemergence): 5%
- pest or weed control at 62 g/ha ([10]; pre-emergence, Preemergence): 10%
- pest or weed control at 125 g/ha ([10]; pre-emergence, Preemergence): 85%
- pest or weed control at 250 g/ha ([10]; pre-emergence, Preemergence): 98%

Reference: patent US10202361B2, “Pyridazinones as herbicides” (E I DU PONT DE NEMOURS AND COMPANY, priority 2014, dated 2019)
